Our source for the Kd values is article PMC4655838, “Versatility in phospho-dependent molecular recognition of the XRCC1 and XRCC4 DNA-damage scaffolds by aprataxin-family FHA domains” (DNA Repair, 2015).

What all share (assay type): binding
Assay [1] addresses T1, wild-type aprataxin FHA domain (Homo sapiens, UniProt Q7Z2E3).
T1 construct: aprataxin residues 1–105; GST (pGEX-6P-1) (N, cleaved yes); made in house; host or cells: Escherichia coli BL21 (DE3)
The assay is described as follows: ITC of wild-type aprataxin FHA domain with XRCC1 and XRCC4 phosphopeptides. To be noted: 22 °C, 50 mM HEPES pH 7.5, 150 mM NaCl, 5 mM β-mercaptoethanol, peptide in syringe, XRCC1 peptides 1 mM into 100 μM protein, XRCC4 peptides 300 μM into 30 μM protein, single-site model, representative of triplicate. The source says:
(§1) The genes for aprataxin residues 1–105 and APLF residues 1–106 were amplified using primer sets which incorporated 5′ BamHI and 3′ XhoI sites. PCR products and pGEX-6P-1 vector were digested with BamHI and XhoI and religated. All point mutations were generated using a QuickChange Site-Directed Mutagenesis Kit (Stratagene) following the manufacturer's recommended protocol.
(§2) For expression, the pGEX-6P-1/aprataxin-FHA constructs were transformed into Escherichia coli strain BL21 (DE3) and the pGEX-6P-1/APLF-FHA constructs transformed into the strain Rosetta2 (DE3). Cells were grown in LB at 37 °C to an A600 of 0.5, induced with 0.4 mM isopropyl 1-thio-β-D-galactopyranoside and incubated at 18 °C for a further 16 h before harvesting. Cells were lysed by sonication and clarified by centrifugation (20,000 × g × 30 min). The supernatant was applied to a glutathione-4B resin (Amersham) and cleaved from the resin with rhinovirus 3C protease. Proteins were purified further by gel-filtration chromatography on a Superdex 75 matrix in 20 mM Tris pH 7.5, 150 mM NaCl, 5 mM DTT. Selenomethionine-labelled APLF L91 M protein was expressed in Rosetta2 (DE3) cells cultured in SelenoMet base media and nutrients supplemented with seleno-methionine solution (Molecular Dimensions Ltd.) and purified as the wild-type protein.
(§3) Phosphopeptides based on the XRCC1 sequence 515-YAGSTDENTDSEEHQ-529 and the XRCC4 sequence 229-YDESTDEES-237 were synthesised with amidated C-termini to avoid potential end-effects of a free carboxy-terminus by Dr. W. Mawby (University of Bristol), purified by HPLC and characterised by mass spectrometry. FHA-phosphopeptide binding was quantified by isothermal titration calorimetry using a Microcal Omega VP-ITC calorimeter (MicroCal Inc., Northampton, MA). Protein was dialysed against ITC buffer (50 mM HEPES pH 7.5, 150 mM NaCl, 5 mM β-mercaptoethanol) and peptides were dissolved in the dialysis buffer. Experiments were carried out at 22 °C and involved 30 successive 10 μl injections of peptide solution into a sample cell containing protein solution. Titrations with XRCC1 peptides used peptide at 1 mM and protein at 100 μM and titrations with XRCC4 peptides used peptide at 300 μm and protein at 30 μM. Heats of dilution were subtracted and binding isotherms were plotted and analysed with MicroCal origin version 7.0, assuming a single-site binding model.

A further assay addresses T2, aprataxin FHA domain (Homo sapiens, UniProt Q7Z2E3).
T2 construct: aprataxin residues 1–105; GST (pGEX-6P-1) (N, cleaved yes); made in house; host or cells: Escherichia coli BL21 (DE3)
Briefly: NMR (1H-SOFAST-HMQC) titrations of aprataxin FHA domain with XRCC1 phosphopeptides. To be noted: NMR titration, 22 °C. As to the method: NMR experiments were carried out at 22 °C on Bruker Avance II+ 600 MHz and Avance III 700 MHz spectrometers, each equipped with a cryogenic triple-resonance probe. Protein and peptides were prepared in NMR buffer (20 mM Na Acetate pH 5.8, 50 mM NaCl, 2 mM DTT). Three-dimensional HNCA, HNCO, HNCACB and CBCA(CO)NH experiments were performed to obtain backbone assignments. NMR titration experiments were carried out by adding the unlabelled XRCC1 peptides to ^15N-labeled aprataxin FHA domain. The initial protein concentration was 92 μM and volumes of 2 mM stock solution of peptide were added until the protein:peptide ratio was 1:4. ^1H-SOFAST-HMQC [36] spectra were measured after each titration step. All spectra were processed using nmrPipe, and analysed using CARA/NEASY [38]. The weighted chemical shift change (in ppm units) of each amide proton (ΔδHN) and nitrogen (ΔδN) was calculated according to the equation: Δδtotal = [(ΔδHNWHN)^2 + (ΔδNWN)^2]^1/2 with WHN = 1 and WN = 0.154 [39]. Weighted chemical shifts for residues D37, V45, Q46, V61 and V63 were plotted against peptide concentration to determine individual Kds and averaged to determine the apparent Kd.

Assay [2] concerns the target T3, R42A Mutant of aprataxin FHA domain (Homo sapiens, UniProt Q7Z2E3, R56A).
T3 construct: aprataxin residues 1–105; GST (pGEX-6P-1) (N, cleaved yes); made in house; host or cells: Escherichia coli BL21 (DE3)
Briefly: ITC of R42A mutant of aprataxin FHA domain with XRCC1 and XRCC4 phosphopeptides. To be noted: 22 °C, 50 mM HEPES pH 7.5, 150 mM NaCl, 5 mM β-mercaptoethanol, single-site model.
Text: as §1, §2, §3

Assay [3] has as its target T4, K38A Mutant of aprataxin FHA domain (Homo sapiens, UniProt Q7Z2E3, K52A).
T4 construct: aprataxin residues 1–105; GST (pGEX-6P-1) (N, cleaved yes); made in house; host or cells: Escherichia coli BL21 (DE3)
The assay is described as follows: ITC of K38A mutant of aprataxin FHA domain with XRCC1 and XRCC4 phosphopeptides. To be noted: 22 °C, 50 mM HEPES pH 7.5, 150 mM NaCl, 5 mM β-mercaptoethanol, single-site model.
Text: as §1, §2, §3

The mark [4] stands for this setting: 20 mM Na Acetate pH 5.8, 50 mM NaCl, 2 mM DTT, 92 µM 15N aprataxin FHA, 2 mM peptide stock, read-out: Kd from weighted chemical shift of residue Asp37.
[5] abbreviates: pH 5.8, 92 µM aprataxin FHA, read-out: Kd from weighted chemical shift of residue Gln46.
Setting [6] is: pH 5.8, 92 µM aprataxin FHA, read-out: Kd from weighted chemical shift of residue Val45.
[7] abbreviates: pH 5.8, 92 µM aprataxin FHA, read-out: Kd from weighted chemical shift of residue Val61.
Setting [8] is: pH 5.8, 92 µM aprataxin FHA, read-out: Kd from weighted chemical shift of residue Val63.

Read-outs that look alike come from different tables or passages of the source. Peptide text beside a SMILES is read from it.

T2 sequence (Q7Z2E3 15-119): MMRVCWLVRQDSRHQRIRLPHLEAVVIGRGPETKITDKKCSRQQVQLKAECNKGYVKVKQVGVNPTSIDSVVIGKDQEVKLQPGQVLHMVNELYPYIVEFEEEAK
T1 sequence (Q7Z2E3 15-119): as above
T3 sequence (Q7Z2E3 15-119 R56A): as the sequence (Q7Z2E3 15-119) above, with R42A counted along it
T4 sequence (Q7Z2E3 15-119 K52A): as the sequence (Q7Z2E3 15-119) above, with K38A counted along it

For the compound `C[C@H](NC(=O)[C@@H](N)Cc1ccc(O)cc1)C(=O)NCC(=O)N[C@@H](CO)C(=O)N[C@H](C(=O)N[C@@H](CC(=O)O)C(=O)N[C@@H](CCC(=O)O)C(=O)N[C@@H](CC(N)=O)C(=O)N[C@H](C(=O)N[C@@H](CC(=O)O)C(=O)N[C@@H](CO)C(=O)N[C@@H](CCC(=O)O)C(=O)N[C@@H](CCC(=O)O)C(=O)N[C@@H](Cc1c[nH]cn1)C(=O)N[C@@H](CCC(N)=O)C(N)=O)[C@@H](C)OP(=O)(O)O)[C@@H](C)O` [YAGSTDENpTDSEEHQ] (HELM PEPTIDE1{Y.A.G.S.T.D.E.N.[C[C@@H](OP(=O)(O)O)[C@H](N[*:1])C(=O)[*:2]].D.S.E.E.H.Q.[am]}$$$$V2.0), the Kd in assay [1] was found to be 42 ± 3.8 µM; on aprataxin FHA domain (setting [4]) it was 7.6 µM; on aprataxin FHA domain (setting [5]), 5.9 µM; on aprataxin FHA domain (setting [6]) it was 9.8 µM; on aprataxin FHA domain (setting [7]), 4 µM; at aprataxin FHA domain (setting [8]) it was 7.9 µM. Moreover, at aprataxin FHA domain (pH 5.8, tighter binders not well defined due to high protein concentration, read-out: overall apparent affinity (Kdapp) estimated from NMR titrations), the Kd is 7 µM.

Regarding `C[C@H](NC(=O)[C@@H](N)Cc1ccc(O)cc1)C(=O)NCC(=O)N[C@@H](CO)C(=O)N[C@H](C(=O)N[C@@H](CC(=O)O)C(=O)N[C@@H](CCC(=O)O)C(=O)N[C@@H](CC(N)=O)C(=O)N[C@H](C(=O)N[C@@H](CC(=O)O)C(=O)N[C@@H](COP(=O)(O)O)C(=O)N[C@@H](CCC(=O)O)C(=O)N[C@@H](CCC(=O)O)C(=O)N[C@@H](Cc1c[nH]cn1)C(=O)N[C@@H](CCC(N)=O)C(N)=O)[C@@H](C)OP(=O)(O)O)[C@@H](C)O` [YAGSTDENpTDpSEEHQ] (HELM PEPTIDE1{Y.A.G.S.T.D.E.N.[C[C@@H](OP(=O)(O)O)[C@H](N[*:1])C(=O)[*:2]].D.[O=C([C@H](COP(=O)(O)O)N[*:1])[*:2]].E.E.H.Q.[am]}$$$$V2.0), the Kd in assay [1] worked out at 33 ± 0.87 µM.

In the case of `C[C@H](NC(=O)[C@@H](N)Cc1ccc(O)cc1)C(=O)NCC(=O)N[C@@H](CO)C(=O)N[C@H](C(=O)N[C@@H](CC(=O)O)C(=O)N[C@@H](CCC(=O)O)C(=O)N[C@@H](CC(N)=O)C(=O)N[C@H](C(=O)N[C@@H](CC(=O)O)C(=O)N[C@@H](CO)C(=O)N[C@@H](CCC(=O)O)C(=O)N[C@@H](CCC(=O)O)C(=O)N[C@@H](Cc1c[nH]cn1)C(=O)N[C@@H](CCC(N)=O)C(N)=O)[C@@H](C)O)[C@@H](C)OP(=O)(O)O` [YAGSpTDENTDSEEHQ] (HELM PEPTIDE1{Y.A.G.S.[C[C@@H](OP(=O)(O)O)[C@H](N[*:1])C(=O)[*:2]].D.E.N.T.D.S.E.E.H.Q.[am]}$$$$V2.0), the Kd in assay [1] was 17 ± 0.4 µM; in assay [2], ≥ 100 µM; in assay [3], 46 ± 2 µM; on aprataxin FHA domain (setting [4]), 9.6 µM; on aprataxin FHA domain (setting [5]), 5.3 µM; on aprataxin FHA domain (setting [6]) it was 8.1 µM. In addition, the figures for the Kd at aprataxin FHA domain (setting [7]) and at aprataxin FHA domain (setting [8]) were 4.2 µM and 6.8 µM, respectively.

`C[C@H](NC(=O)[C@@H](N)Cc1ccc(O)cc1)C(=O)NCC(=O)N[C@@H](COP(=O)(O)O)C(=O)N[C@H](C(=O)N[C@@H](CC(=O)O)C(=O)N[C@@H](CCC(=O)O)C(=O)N[C@@H](CC(N)=O)C(=O)N[C@H](C(=O)N[C@@H](CC(=O)O)C(=O)N[C@@H](CO)C(=O)N[C@@H](CCC(=O)O)C(=O)N[C@@H](CCC(=O)O)C(=O)N[C@@H](Cc1c[nH]cn1)C(=O)N[C@@H](CCC(N)=O)C(N)=O)[C@@H](C)O)[C@@H](C)OP(=O)(O)O` [YAGpSpTDENTDSEEHQ] (HELM PEPTIDE1{Y.A.G.[O=C([C@H](COP(=O)(O)O)N[*:1])[*:2]].[C[C@@H](OP(=O)(O)O)[C@H](N[*:1])C(=O)[*:2]].D.E.N.T.D.S.E.E.H.Q.[am]}$$$$V2.0): the Kd in assay [1] was determined as 1.5 ± 0.06 µM; in assay [2], 53.2 ± 5.8 µM; in assay [3], 12.8 ± 0.7 µM; on aprataxin FHA domain (setting [4]), 2 µM; at aprataxin FHA domain (setting [5]), 1.7 µM; on aprataxin FHA domain (setting [6]) it was 2.5 µM. Further, the Kd is 1.6 µM at aprataxin FHA domain (setting [7]) and 2.1 µM at aprataxin FHA domain (setting [8]).
